Measurements as given in patent US7335770B2, “Triazine compounds and their analogs, compositions, and methods” (Reddy U5 Therapeutics, Inc., priority 2004, dated 2008).
pIC50: −log10 of the molar value. Read-outs that look alike come from different tables or passages of the source.

Test system: smooth muscle cells (SMC)
Experiment: anti-proliferation assay (perlecan)
Format: cell-based
Settings: for activity in anti-proliferation assay (Perlecan), in words: using the same activity scale used in Table 3; for pIC50: anti-proliferation assay (perlecan)
Description: The activity scale used in Table 3 as follows (numbers are inclusive): “+++” represents IC50 of less than about 3 μM; “++” represents IC50 of between about 3 and about 7 μM; and “+” represents IC50 of greater than about 7 μM. In addition, compounds, to include compositions thereof, encompassed within the scope of structures Ia-XXIVa, respectively, or listed in Tables 1A and 1E may be likewise employed in this embodiment and/or aspect of the present invention. Further, any hydrogen atoms that are required for any atom to attain its usual valence in a structure presented in Table 3, whether a carbon atom or a heteroatom, should be inferred if it is not specifically indicated.
In addition to the above compounds, the following compounds and compositions comprising these compounds are active in an anti-proliferation assay (Perlecan). These compounds and compositions comprising these compounds are, among other things, generally useful for treating cardiovascular disorders associated with proliferative activity. Specifically, these compounds include N^2-cycloheptyl-N^4-(3-fluoro-4-methoxyphenyl)-N^6-methyl-N^6-(1-methyl-piperidin-4-yl)-1,3,5-triazine-2,4,6-triamine, and N^2-cycloheptyl-N^4-methyl-N^4-(1-methyl-piperidin-4-yl)-N^6-naphthalen-2-yl-1,3,5-triazine-2,4,6-triamine.
Methods for identifying the activity and screening for one or more of these compounds or molecules that induce synthesis of proteoglycans such as HSPG (heparan sulfate proteoglycan) are taught in U.S. patent application Ser. No. 10/091,357, which is incorporated herein in its entirety. Assays of effects of compounds in vivo are also taught in the incorporated references and are known to those skilled in the art. In general, methods comprise the addition of such compounds to assays and measurement of HSPG synthesis including, but not limited to, the production of syndecans, glypicans and perlecans, for example, syndecans 1, 2 and 4; and glypican-1. Other assays that can be used to determine the activity of the compounds of the present invention include other methods for measuring the induction of perlecan synthesis. For example, in one assay, perlecan is induced in cells by certain inducers, and the response is measured. Compounds of the present invention are then added to a replicate assay and the effect on perlecan induction is determined. Using such methods, compounds are determined that can either inhibit perlecan, elevate induction of perlecan, or that have no effect at all. Those compounds that are effective as therapeutic agents can then be used in animals, humans or patients with cellular proliferation disease aspects, such as vascular-associated diseases or SMC proliferation pathologies.
Another assay for determining compounds having SMC effects comprises adding a composition suspected of affecting SMC proliferation to smooth muscle cells in growth medium or serum-free medium. The change in cell proliferation can be measured by methods known to those skilled in the art, such as incorporation of labeled nucleotides into dividing cells' DNA, and compared to the proliferation of cells which are not treated with the compound. Other measurements include directly determining levels of HSPG synthesis by measuring the amount or change in amount of HSPG such as with ELISA for HSPGs, and compared to the amount of HSPG synthesis in untreated cells. Other indirect or direct measurement are contemplated by the present invention and are known to those skilled in the art. For example, such methods include, but are not limited to, measurement of RNA levels, RT-PCR, Northern blotting, Western blotting promoter-based assays to identify compounds that affect one or more proteoglycans and assays for proteoglycan biological activity shown by recombinant proteins, partially purified proteins, or lysates from cells expressing proteoglycans in the presence or absence of compounds of interest.

| SMILES | activity in anti-proliferation assay (Perlecan), in words | further results |
| --- | --- | --- |
| COc1cc(OC)c(-c2nc(Nc3ccc(OC)c(Cl)c3)nc(NC3CCCCCC3)n2)c(OC)c1 [N-(3-Chloro-4-methoxy-phenyl)-N′-cycloheptyl-6-(2,4,6-trimethoxy-phenyl)-[1,3,5]triazine-2,4-diamine] | high activity | – |
| COc1ccc(-c2nc(Nc3ccc(OC)c(Cl)c3)nc(NC3CCCCCC3)n2)c(OC)c1 [N-(3-Chloro-4-methoxy-phenyl)-N′-cycloheptyl-6-(2,4-dimethoxy-phenyl)-[1,3,5]triazine-2,4-diamine] | high activity | – |
| COc1ccc(Nc2nc(NC3CCCCCC3)nc(Sc3c(Cl)cccc3Cl)n2)cc1Cl [N-(3-Chloro-4-methoxy-phenyl)-N′-cycloheptyl-6-(2,6-dichloro-phenylsulfanyl)-[1,3,5]triazine-2,4-diamine] | high activity | – |
| COc1ccc(Nc2nc(NC3CCCCCC3)nc(Oc3ccccc3F)n2)cc1Cl [N-(3-Chloro-4-methoxy-phenyl)-N′-cycloheptyl-6-(2-fluoro-phenoxy)-[1,3,5]triazine-2,4-diamine] | high activity | – |
| COc1ccc(Nc2nc(NC3CCCCCC3)nc(Oc3ccccc3I)n2)cc1Cl [N-(3-Chloro-4-methoxy-phenyl)-N′-cycloheptyl-6-(2-iodo-phenoxy)-[1,3,5]triazine-2,4-diamine] | high activity | – |
| COc1ccc(Nc2nc(NC3CCCCCC3)nc(Sc3ccccc3OC)n2)cc1Cl [N-(3-Chloro-4-methoxy-phenyl)-N′-cycloheptyl-6-(2-methoxy-phenylsulfanyl)-[1,3,5]triazine-2,4-diamine] | high activity | – |
| COc1ccc(Nc2nc(NC3CCCCCC3)nc(Sc3ccc(F)cc3)n2)cc1Cl [N-(3-Chloro-4-methoxy-phenyl)-N′-cycloheptyl-6-(4-fluoro-phenylsulfanyl)-[1,3,5]triazine-2,4-diamine] | high activity | – |
| COc1ccc(Nc2nc(NC3CCCCCC3)nc(Oc3ccc(I)cc3)n2)cc1Cl [N-(3-Chloro-4-methoxy-phenyl)-N′-cycloheptyl-6-(4-iodo-phenoxy)-[1,3,5]triazine-2,4-diamine] | high activity | – |
| COc1ccc(Nc2nc(NC3CCCCCC3)nc(Oc3cccc(C)n3)n2)cc1Cl [N-(3-Chloro-4-methoxy-phenyl)-N′-cycloheptyl-6-(6-methyl-pyridin-2-yloxy)-[1,3,5]triazine-2,4-diamine] | high activity | – |
| COc1ccc(Nc2nc(NC3CCCCCC3)nc(Oc3cccnc3)n2)cc1Cl [N-(3-Chloro-4-methoxy-phenyl)-N′-cycloheptyl-6-(pyridin-3-yloxy)-[1,3,5]triazine-2,4-diamine] | high activity | – |
| COc1ccc(Nc2nc(NC3CCCCCC3)nc(OCC3CCCO3)n2)cc1Cl (centres unmarked) [N-(3-Chloro-4-methoxy-phenyl)-N′-cycloheptyl-6-(tetrahydro-furan-2-ylmethoxy)-[1,3,5]triazine-2,4-diamine] | high activity | – |
| COc1ccc(Nc2nc(NC3CCCCCC3)nc(OCCOc3ccccc3F)n2)cc1Cl [N-(3-Chloro-4-methoxy-phenyl)-N′-cycloheptyl-6-[2-(2-fluoro-phenoxy)-ethoxy]-[1,3,5]triazine-2,4-diamine] | high activity | – |
| COc1ccc(Nc2nc(NC3CCCCCC3)nc(OC(C)C)n2)cc1Cl [N-(3-Chloro-4-methoxy-phenyl)-N′-cycloheptyl-6-isopropoxy-[1,3,5]triazine-2,4-diamine] | high activity | – |
| COc1ccc(Nc2nc(NC3CCCCCC3)nc(Sc3ccccc3)n2)cc1Cl [N-(3-Chloro-4-methoxy-phenyl)-N′-cycloheptyl-6-phenylsulfanyl-[1,3,5]triazine-2,4-diamine] | high activity | – |
| COc1ccc(Nc2nc(NCC3CCCO3)nc(NC3CCCCCC3)n2)cc1Cl (centres unmarked) [N-(3-Chloro-4-methoxy-phenyl)-N′-cycloheptyl-N″-(tetrahydro-furan-2-ylmethyl)-[1,3,5]triazine-2,4,6-triamine] | high activity | – |
| COc1ccc(Nc2nc(NC3CCCCCC3)nc(NC3CCNCC3)n2)cc1Cl [N-(3-Chloro-4-methoxy-phenyl)-N′-cycloheptyl-N″-piperidin-4-yl-[1,3,5]triazine-2,4,6-triamine] | high activity | – |
| CCN1CCCC1CNc1nc(Nc2ccc(OCc3ccccc3)c(Cl)c2)nc(NC2CCCCCC2)n1 (centres unmarked) [N-(4-Benzyloxy-3-chloro-phenyl)-N′-cycloheptyl-N″-(1-ethyl-pyrrolidin-2-ylmethyl)-[1,3,5]triazine-2,4,6-triamine] | high activity | – |
| CCOc1nc(Nc2ccc(OC)c(F)c2)nc(NC2CCCCCC2)n1 [N-Cycloheptyl-6-ethoxy-N′-(3-fluoro-4-methoxy-phenyl)-[1,3,5]triazine-2,4-diamine] | high activity | – |
| CCN1CCCC1CNc1nc(Nc2ccc(C)c(F)c2)nc(NC2CCCCCC2)n1 (centres unmarked) [N-Cycloheptyl-N′-(1-ethyl-pyrrolidin-2-ylmethyl)-N″-(3-fluoro-4-methyl-phenyl)-[1,3,5]triazine-2,4,6-triamine] | high activity | – |
| Cc1ccc(Nc2nc(NC3CCCCCC3)nc(N(C)C3CCN(C)CC3)n2)cc1F [N-Cycloheptyl-N′-(3-fluoro-4-methyl-phenyl)-N″-methyl-N″-(1-methyl-piperidin-4-yl)-[1,3,5]triazine-2,4,6-triamine] | high activity | – |
| CN1CCC(N(C)c2nc(Nc3cccc(F)c3)nc(NC3CCCCCC3)n2)CC1 [N-Cycloheptyl-N′-(3-fluoro-phenyl)-N″-methyl-N″-(1-methyl-piperidin-4-yl)-[1,3,5]triazine-2,4,6-triamine] | high activity | – |
| CN1CCC(N(C)c2nc(Nc3cccc([N+](=O)[O-])c3)nc(NC3CCCCCC3)n2)CC1 [N-Cycloheptyl-N′-methyl-N′-(1-methyl-piperidin-4-yl)-N″-(3-nitro-phenyl)-[1,3,5]triazine-2,4,6-triamine] | high activity | – |
| COc1ccc(Nc2nc(NC3CCCCCC3)nc(N(C)C3CCN(C)CC3)n2)cc1F [N^2-cycloheptyl-N^4-(3-fluoro-4-methoxyphenyl)-N^6-methyl-N^6-(1-methyl-piperidin-4-yl)-1,3,5-triazine-2,4,6-triamine] | medium or moderate activity | – |
| CN1CCC(N(C)c2nc(Nc3ccc4ccccc4c3)nc(NC3CCCCCC3)n2)CC1 [N^2-cycloheptyl-N^4-methyl-N^4-(1-methyl-piperidin-4-yl)-N^6-naphthalen-2-yl-1,3,5-triazine-2,4,6-triamine] | high activity | – |
| COc1ccc(Nc2nc(NC3CCCCCC3)nc(OCC3CCCN3C)n2)cc1Cl (centres unmarked) [drawing 575, N-(3-Chloro-4-methoxy-phenyl)-N′-cyclo-heptyl-6-(1-methyl-pyr-rolidin-2-ylmethoxy)-[1,3,5]tri-azine-2,4-diamine] | – | pIC50 (class of IC50, read-out: Activity (note 1)): 5.15 to 5.52; pIC50 (some cells print no unit, read-out: Avg IC-50): 5.30 |
